Each block holds one compound with its values, some of them ahead of it. Starred links: 1 amine or outer side, 2 acyl side, 3 side chain; linkers in the order of their positions; H or OH if unused. Non-standard residues stand in square brackets, D forms with d. Residues, ends and D or L forms follow the SMILES beside them. X10 = NCCCC[C@H](NC(=S)[C@@H](Cc1c[nH]c2ccccc12)N[*:1])C(=O)[*:2]; X12 = C[C@@H](O)[C@H](N[*:1])C(=S)N[C@@H](Cc1ccccc1)C(=O)[*:2]; X7 = C[C@@H](O)[C@H](NC(=S)[C@H](CCCCN)N[*:1])C(=O)[*:2]; X2 = CC(C)C[C@H](NC(=S)[C@@H](CC(C)C)N[*:1])C(=O)[*:2]; X8 = O=C([C@H](Cc1ccccc1)NC(=S)[C@@H]1CCCN1[*:1])[*:2]
Legend:
[1] = type: physicochemical
[2] = in vitro; conditions: pig, simulated intestinal fluid
[3] = HDX of amide protons by NMR in DMSO-d6:D2O (8:2); conditions: HDX by NMR, 20% D2O in DMSO-d6
Protocol: (§1) As hydrogen bonding and solvation of NH groups play an important role in the permeability of macrocycles, we determined the solvent accessibility of individual amide protons in 10 and 10a–10f by hydrogen-deuterium exchange (HDX) through NMR spectroscopy (Figs. 2a–c).
(§2) Spectra were recorded on a Bruker AV 500 MHz spectrometer at 25 °C.

[4] = target: pepsin (Sus scrofa, UniProt P00791); assay: in vitro; conditions: simulated gastric fluid, pH 1.2
Protocol: (§3) A stability assessment of the peptides was done in simulated gastric (SGF) and intestinal (SIF) fluids and human liver microsomes. The degradation kinetics of the aliquoted samples at desired time points were analyzed through RP-HPLC.

[5] = Retention in hydrophobic C18 column by HPLC; conditions: Supplementary Fig 3d, logD7.4 vs tR
[6] = in vitro; conditions: both, human, plasma
[7] = in vitro; conditions: human, microsomes
Protocol: as §3

[8] = in vitro; conditions: both, human, plasma; remark: listed apart in the source
[9] = in vivo; conditions: male, Wistar, rat
Protocol: (§4) All animals were housed individually in the animal facility at Anthem Biosciences Pvt. Ltd and were acclimatized for 3 days. All animals were fasted overnight before dosing, whereas access to water was provided ad libitum. Peptides were administered orally and via s.c. route and blood samples were collected at different time points through a jugular vein catheter.

[10] = PAMPA passive permeability; type: in vitro ADME;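 also: passive permeability across an artificial membrane in 96-well pre-coated PAMPA plates, which lack transporters and efflux systems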
Protocol: Encouraged by this, the passive permeability of the analogs was evaluated using an artificial membrane (PAMPA), which measures permeability of compounds in the absence of transporters and efflux systems[32].
96-well BD Corning® pre-coated PAMPA plates were used following the supplier’s protocol, details in Supplementary Information.

[11] = tested on: human liver microsomes
Protocol: as §3

[12] = tested on: Caco-2 cells; assay: in vitro; type: in vitro ADME, human; conditions: Caco-2
Protocol: (§5) The Caco-2 cell (HTB-37^TM from ATCC, procured from NCCS, Pune) monolayer was washed and pre-incubated at 37 °C and 5% CO2 for 30 min with HBSS-HEPES buffer containing 1% DMSO prior to experimentation. The assay was performed 21 days post-seeding of cells. TEER values were measured before starting and after the completion of the assay. Acceptor and donor well concentrations of the peptides and controls were assessed through LC-MS/MS.

[13] = in vitro; type: in vitro ADME, human
Protocol: as §5

[14] = type: physicochemical; remark: listed apart in the source
[15] = physchem; conditions: pH 7.4
[16] = HDX of amide protons by NMR in CDCl3:CD3OD (8:2)
Protocol: as §1, §2

[17] = rat, in vivo, po, 10 mg/kg
Protocol: as §4

[18] = tested on: pancreatin
[19] = target: T1, SSTR5 (Homo sapiens, UniProt P35346); assay: GloSensor assay, inhibition of forskolin-induced cAMP production; type: cell-based; conditions: for binding against SSTR5 (in words): HEK293T cells expressing SSTR5, cAMP GloSensor
T1 construct: expressed in transfected cells; host or cells: HEK-293T (CRL-3216)
Protocol: HEK-293T cells (CRL-3216 from ATCC, procured from NCCS, Pune) were co-transfected with human somatostatin receptor subtypes 2 & 5, plasmid cDNA, and cAMP biosensor (pGloSensorTM-22F plasmid; Promega Corp.) using PEImax. Ligand incubation was followed by the addition and incubation of forskolin (FSK) to the plate. Dose-dependent inhibition of forskolin-induced cAMP production by the peptide ligands was measured using a luminescence plate reader. An elaborate description of the assay setup has been provided in Supplementary Information.

[20] = target: T2, SSTR2 (Homo sapiens, UniProt P30874); assay: as above; type: cell-based; conditions: for binding against SSTR2 (in words): HEK293T cells expressing SSTR2, cAMP GloSensor; for IC50: read-out: IC50 sstr2
T2 construct: expressed in transfected cells; host or cells: HEK-293T (CRL-3216)

[21] = tested on: growth hormone (GH) release; assay: In vivo inhibition of growth hormone release (sandwich ELISA); parameters: species or system rats; conditions: for AUC 0_24: growth hormone AUC 0-24 h; for AUC 0_24 / AUC 0_48 / AUC 24_48: mean of n = 3; for AUC 0_48: growth hormone AUC 0-48 h; for AUC 24_48: growth hormone AUC 24-48 h
Protocol: In vivo inhibition of GH. Finally, we estimated the in vivo efficacy of 13 and the thioamidated analogs 13b, 13d, and 13e in suppressing the release of growth hormone (GH) post subcutaneous injection at 250 μg/kg dosage (Fig. 7e). 13a was also included as a negative control to assess its effect on GH release. The rats were bled from their orbital sinus, and the plasma GH levels were evaluated through sandwich ELISA. […] This correlates well with the high plasma concentration of 13 at the initial time points and a rapid drop within 2 h of s.c. administration (Fig. 7c). […] In contrast, the inhibitory effect lasts longer in 13b, 13d, and 13e showing a significant reduction in plasma GH levels within 24–48 h (Fig. 7h). […] The rapid drop in plasma concentration of 13 is responsible for its least in vivo efficacy.
Animal housing and acclimatization were done at Central Animal Facility, IISc Bangalore, as mentioned in the previous section, following protocols from the IEAC and CPCSEA. […] Samples were processed as discussed in Supplementary Information, and sandwich ELISA was performed to measure the growth hormone level in blood plasma. For acute toxicity, after peptide injection (s.c.), blood samples were collected on the 14th day for liver and kidney function tests.

[22] = in vivo; conditions: male, rat, sc; for half-life: Sprague-Dawley
Protocol: Subsequently, we selected 13a, 13b, 13d, and 13e for assessing their plasma exposure post single dose subcutaneous injection into male Sprague Dawley rats.
as §4

[23] = 20% CD3OD in CDCl3, % remaining after 24 hours
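For Papp A-B avg (second block) in this document: Caco-2 monolayers used 21 days after seeding in HBSS-HEPES buffer with 1% DMSO, donor and acceptor levels quantified by LC-MS/MS, TEER checked before and after.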
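For Papp A-B set 1 (second block) in this document: Caco-2 monolayers used 21 days after seeding in HBSS-HEPES buffer with 1% DMSO, donor and acceptor levels quantified by LC-MS/MS, TEER checked before and after.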
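For Papp A-B set 2 (second block) in this document: Caco-2 monolayers used 21 days after seeding in HBSS-HEPES buffer with 1% DMSO, donor and acceptor levels quantified by LC-MS/MS, TEER checked before and after.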
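For Papp B-A avg (second block) in this document: Caco-2 monolayers used 21 days after seeding in HBSS-HEPES buffer with 1% DMSO, donor and acceptor levels quantified by LC-MS/MS, TEER checked before and after.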

Chain of pepsin (P00791 60-385): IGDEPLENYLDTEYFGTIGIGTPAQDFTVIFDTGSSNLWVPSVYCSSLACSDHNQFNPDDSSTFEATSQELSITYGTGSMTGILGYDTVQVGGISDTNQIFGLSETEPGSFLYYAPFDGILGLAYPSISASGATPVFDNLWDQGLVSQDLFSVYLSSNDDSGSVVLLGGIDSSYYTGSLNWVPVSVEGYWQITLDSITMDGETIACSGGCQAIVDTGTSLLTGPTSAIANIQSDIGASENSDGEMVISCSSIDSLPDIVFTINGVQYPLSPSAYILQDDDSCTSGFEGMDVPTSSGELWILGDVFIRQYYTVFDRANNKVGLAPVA
T2 sequence (P30874 whole entry): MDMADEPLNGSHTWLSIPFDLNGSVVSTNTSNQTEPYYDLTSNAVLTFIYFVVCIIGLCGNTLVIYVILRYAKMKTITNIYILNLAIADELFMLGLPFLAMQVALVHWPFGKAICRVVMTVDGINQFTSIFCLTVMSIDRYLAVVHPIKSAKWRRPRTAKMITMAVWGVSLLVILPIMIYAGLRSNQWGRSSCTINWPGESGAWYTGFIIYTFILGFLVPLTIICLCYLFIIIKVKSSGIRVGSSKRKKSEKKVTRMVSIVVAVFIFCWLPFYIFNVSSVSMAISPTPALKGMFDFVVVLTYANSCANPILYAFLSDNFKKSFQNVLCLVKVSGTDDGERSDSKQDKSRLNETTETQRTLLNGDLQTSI
T1 sequence (P35346 whole entry): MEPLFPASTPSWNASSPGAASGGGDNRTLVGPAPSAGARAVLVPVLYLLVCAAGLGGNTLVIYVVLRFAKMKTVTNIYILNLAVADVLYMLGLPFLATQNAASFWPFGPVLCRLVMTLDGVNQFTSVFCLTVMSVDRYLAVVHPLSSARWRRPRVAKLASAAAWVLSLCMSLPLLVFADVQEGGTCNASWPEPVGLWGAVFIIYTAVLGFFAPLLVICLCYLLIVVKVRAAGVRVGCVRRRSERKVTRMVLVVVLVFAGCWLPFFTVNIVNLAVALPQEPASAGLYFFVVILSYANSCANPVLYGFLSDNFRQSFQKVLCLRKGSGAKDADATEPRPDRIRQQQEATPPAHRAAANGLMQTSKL

SMILES: CC(C)C[C@@H]1NC(=O)[C@H](Cc2ccc(O)cc2)NC(=O)[C@H]2CCCN2C(=O)[C@H](CC(C)C)NC(=O)[C@H](CC(C)C)NC(=S)[C@@H](CC(C)C)NC1=O [10a] (cyclo(L[dP]YL[X2]))
% solubility [1]: 58% | half-life [2]: 2.45 h | remaining at 10 min [2]: 78.4% | remaining at 0.5 h [2]: 66% | remaining at 1 h [2]: 55.9% | remaining at 2 h [2]: 49.2% | remaining at 4 h [2]: 34% | remaining at 8 h [2]: 26.3% | remaining at 12 h [2]: 18.8% | remaining at 24 h [2]: 11% | Half-life of D-Leu1 amide proton (HDX) [3]: 2.83 h | Half-life of Leu2 amide proton (HDX) [3]: 1.83 h | Half-life of Leu3 amide proton (HDX) [3]: 12 h | Half-life of Leu6 amide proton (HDX) [3]: 13.3 h | Half-life of Tyr5 amide proton (HDX) [3]: 0.838 h | half-life [4]: 0.7 h | remaining at 5 min [4]: 83% | remaining at 10 min [4]: 74% | remaining at 20 min [4]: 63% | remaining at 0.5 h [4]: 56% | remaining at 1 h [4]: 42% | remaining at 2 h [4]: 34% | remaining at 4 h [4]: 31% | remaining at 8 h [4]: 19% | remaining at 12 h [4]: 11% | remaining at 24 h [4]: 7% | tR [5]: 10.8 min | fraction unbound [6]: 0.28 | microsomal CLint [7]: 29.5 µL/min/mg | remaining at 5 min [7]: 75% | remaining at 10 min [7]: 65% | remaining at 20 min [7]: 64% | remaining at 0.5 h [7]: 58% | remaining at 0.75 h [7]: 52% | remaining at 1 h [7]: 44% | half-life [8]: 22 h | remaining at 1 h [8]: 94% | remaining at 3 h [8]: 84% | remaining at 5 h [8]: 78% | remaining at 7 h [8]: 72% | remaining at 9 h [8]: 66% | remaining at 12 h [8]: 56% | remaining at 24 h [8]: 45% | remaining at 36 h [8]: 33% | remaining at 48 h [8]: 23% | remaining at 60 h [8]: 22% | remaining at 72 h [8]: 21% | AUC(0-t) ([9]; iv): 146 ng·h/mL | Cmax ([9]; iv): 48.1 ng/mL | MRT ([9]; iv): 2.8 h | Vd ([9]; iv): 28.6 L/kg | clearance ([9]; iv): 91.1 mL/min/kg | bioavailability ([9]; po): 1.8% | AUC(0-t) ([9]; po, 10 mg/kg): 26.9 ng·h/mL | Cmax ([9]; po, 10 mg/kg): 15 ng/mL | MRT ([9]; po, 10 mg/kg): 2 h | level at 3 h ([9]; po, 10 mg/kg): 3 ng/mL | Pe set1 [10]: 8.08 ×10⁻⁶ cm/s | Pe set2 [10]: 12.5 ×10⁻⁶ cm/s | Pe set3 [10]: 11.81 ×10⁻⁶ cm/s | Papp ([10]; Pe Avg): 10.8 ×10⁻⁶ cm/s | Half lives [11]: 46.9 | Papp A-B avg (second block) [12]: 3.25 ×10⁻⁶ cm/s | Papp A-B set 1 (second block) [12]: 3.14 ×10⁻⁶ cm/s | Papp A-B set 2 (second block) [12]: 3.36 ×10⁻⁶ cm/s | Papp B-A avg (second block) [12]: 75.4 ×10⁻⁶ cm/s | Papp B-A set 1 (second block) [12]: 77.4 ×10⁻⁶ cm/s | Papp B-A set 2 (second block) [12]: 73.3 ×10⁻⁶ cm/s | Papp A→B ([13]; Caco-2, Papp A-B + Elacridar avg): 13 ×10⁻⁶ cm/s | Papp A→B ([13]; Caco-2, Papp A-B avg): 3.25 ×10⁻⁶ cm/s | Papp B→A ([13]; Caco-2, Papp B-A + Elacridar avg): 16.9 ×10⁻⁶ cm/s | Papp B→A ([13]; Caco-2, Papp B-A avg): 75.4 ×10⁻⁶ cm/s | logD heptane ethylene glycol [14]: 0.97 | logD [15]: 1.21 | Half-life of D-Leu1 amide proton (HDX) ([16]; 20% CD3OD in CDCl3): 19.25 h | Half-life of Leu2 amide proton (HDX) ([16]; 20% CD3OD in CDCl3): 0.333 h | Half-life of Leu3 amide proton (HDX) ([16]; 20% CD3OD in CDCl3): > 24 h | Half-life of Leu6 amide proton (HDX) ([16]; 20% CD3OD in CDCl3): > 24 h | Half-life of Tyr5 amide proton (HDX) ([16]; 20% CD3OD in CDCl3): > 24 h | % intact NH, Leu3 [16, 23]: 80% | % intact NH, Leu6 [16, 23]: 89% | % intact NH, Tyr5 [16, 23]: 80% | AUClast p.o [17]: 26.9 ng·h/mL | time over which the peptide is detectable in plasma [17]: ≥ 8 h

SMILES: C[C@@H](O)[C@@H]1NC(=O)[C@H](CCCCN)NC(=S)[C@@H](Cc2c[nH]c3ccccc23)NC(=O)[C@H](Cc2ccccc2)NC(=O)[C@@H]2CCCN2C(=O)[C@H](Cc2ccccc2)NC1=O [13a] (cyclo(FPF[X10]T))
t1/2 in SIF [18]: over 72 h | fraction unbound [6]: 0.11 | IC50 [19]: > 10000 nM | binding against SSTR5 (in words) [19]: complete loss in binding | half-life [8]: 34 h | binding against SSTR2 (in words) [20]: complete loss in binding | IC50 [20]: > 10000 nM | Papp ([10]; Pe): 2.45 ×10⁻⁶ cm/s | AUC 0_24 [21]: 1085 ng·h/mL | AUC 0_48 [21]: 2274 ng·h/mL | AUC 24_48 [21]: 1188 ng·h/mL | logD heptane ethylene glycol [14]: -0.94 | logD [15]: -0.65 | level at 0.5 h ([22]; Sprague Dawley): 146 ng/mL | level at 1 h ([22]; Sprague Dawley): 107 ng/mL | level at 2 h ([22]; Sprague Dawley, 250 ug/kg): 40 ng/mL | half-life [22]: 0.7 ± 0.1 h

SMILES: C[C@@H](O)[C@@H]1NC(=S)[C@H](CCCCN)NC(=O)[C@@H](Cc2c[nH]c3ccccc23)NC(=O)[C@H](Cc2ccccc2)NC(=O)[C@@H]2CCCN2C(=O)[C@H](Cc2ccccc2)NC1=O [13b] (cyclo(FPF[dW][X7]))
t1/2 in SIF [18]: over 72 h | fraction unbound [6]: 0.14 | IC50 [19]: 228 ± 41.9 nM | half-life [8]: 32 h | IC50 [20]: 15.6 ± 4.3 nM | Papp ([10]; Pe): 2.92 ×10⁻⁶ cm/s | AUC 0_24 [21]: 436 ng·h/mL | AUC 0_48 [21]: 1134 ng·h/mL | AUC 24_48 [21]: 668 ng·h/mL | inhibition of unstimulated GH release ([21]; rats, 250 μg/kg s.c., plasma GH by sandwich ELISA over 48 h): significant inhibition | logD heptane ethylene glycol [14]: -0.83 | logD [15]: -0.64 | level at 0.5 h ([22]; Sprague Dawley): 72 ng/mL | level at 1 h ([22]; Sprague Dawley): 44 ng/mL | half-life [22]: 0.6 ± 0.2 h

Other lines, results leading:

half-life [2]: 2.5 h | fraction unbound [6]: 0.21 | binding against SSTR5 (in words) [19]: complete loss in binding | half-life [8]: 33 h | binding against SSTR2 (in words) [20]: complete loss in binding | Papp ([10]; Pe): 0.96 ×10⁻⁶ cm/s | logD heptane ethylene glycol [14]: -1.18 | logD [15]: -1.04
SMILES: C[C@@H](O)[C@@H]1NC(=O)[C@H](CCCCN)NC(=O)[C@@H](Cc2c[nH]c3ccccc23)NC(=O)[C@H](Cc2ccccc2)NC(=O)[C@@H]2CCCN2C(=O)[C@H](Cc2ccccc2)NC1=S [13c] (cyclo(F[dW]K[X12]P))

fraction unbound [6]: 0.09 | IC50 [19]: 232 ± 70.4 nM | half-life [8]: 31 h | IC50 [20]: 19.2 ± 11.4 nM | Papp ([10]; Pe): 1.92 ×10⁻⁶ cm/s | logD heptane ethylene glycol [14]: -1.16 | logD [15]: -0.72 | level at 0.5 h ([22]; Sprague Dawley): 38.1 ng/mL | level at 1 h ([22]; Sprague Dawley): 57 ng/mL | half-life [22]: 0.6 ± 0.3 h
SMILES: C[C@@H](O)[C@@H]1NC(=O)[C@H](CCCCN)NC(=O)[C@@H](Cc2c[nH]c3ccccc23)NC(=O)[C@H](Cc2ccccc2)NC(=S)[C@@H]2CCCN2C(=O)[C@H](Cc2ccccc2)NC1=O [13e] (cyclo(F[X8][dW]KT))

— article PMC10539501 (Nature Communications, 2023)
